The values that follow come from publication PMC8575619, “Cytotoxic and Antifungal Amides Derived from Ferulic Acid: Molecular Docking and Mechanism of Action” (BioMed Research International, 2021).

The test system of data set [1] is Candida albicans CBS 562. The data set is described as follows: MIC by broth microdilution. It is filed as cell-based. The following applies: N.A.: no activity; for MIC C. albicans CBS 562: 24 h. Here is the method: (§1) Antifungal activity evaluations were performed using references strains of Candida spp., obtained from the Centraalbureau voor Schimmelcultures (CBS, Ultrecht, Netherlands): Candida albicans CBS 562, Candida tropicalis CBS 94, and Candida krusei CBS 573. Nystatin, Tween 80%, DMSO, caspofungin diacetate, and ergosterol were obtained from Sigma-Aldrich® (St. Louis, MO, EUA) and sorbitol (D-sorbitol anhydrous) from INLAB® (São Paulo, Brazil). All assays were performed in triplicate in three independent experiments. The culture medium used for maintenance of the microorganisms was Agar Sabouraud Dextrose (ASD). Inoculants were adjusted to a final concentration of 2.5 × 10^3 CFU/mL (Clinical and Laboratory Standards Institute, 2002). […]
(§2) MIC was determined by the microdilution technique, as previously described by the adapted Clinical and Laboratory Standards Institute (CLSI, 2002) method. The compounds were subjected to the microdilution technique in 96-well plates, with U bottom. The samples were dissolved with DMSO and sterile distilled water (up to 1.0 mL). Through serial dilutions, concentrations of the evaluated compounds ranging from 1000 μg/mL to 7.8 μg/mL. The culture sterility medium, the evaluated substances, and the microbial growth were carried out in parallel. The plates were closed and subjected to a temperature of 35 ± 2°C for 24 h. 1% TTC (2,3,5-triphenyl tetrazolium chloride, Sigma-Aldrich®, St. Louis, MO, EUA) was added to each well to confirm the presence of viable microorganisms. MIC was defined as the lowest concentration of the test substance that inhibits visible microbial growth.

A further data set deals with HL-60. The data set is described as follows: Cytotoxicity assay, alamar blue test. It counts as cell-based, human. The following applies: value (95% confidence interval); for IC50: read-out: IC50 HL60. Here is the method: (§3) HepG2 cells (human hepatocellular carcinoma), HCT116 (human colon carcinoma), HL-60 (human promyelocytic leukemia), and MRC5 (human lung fibroblast) obtained from the ATCC (Manassas, VA, USA) were used. Cells were cultured in cell culture bottles (75 cm 3, 250 mL volume), and media used were RPMI 1640 and supplemented with 10% fetal bovine serum. Cells were maintained in incubators with 5% CO2 atmosphere at 37°C. Cellular growth was monitored daily with the use of an inversion microscope. The medium was changed whenever cell growth reached the necessary confluence for nutrient renewal. For the maintenance of adhered cells, trypsin (0.25%) was used for the cells to detach from the walls of the bottles.
(§4) To assess the cytotoxicity of the substances, the alamar blue test was performed after 72 h of exposure with the test substances. Alamar blue, known as resazurin [62], is a fluorescent/colorimetric indicator with redox properties. The reduction in alamar blue reflects cell proliferation. This was initially used to indicate cell growth and/or viability in monitoring lymphocyte proliferation and currently has several applications. Initially, cells were plated in 96-well plates (100 μL/well of a solution of 0.3 × 10^6 cells/mL for cells in suspension and 0.7 × 10^5 cells/mL for adhered cells). After 24 h of incubation, the test substances dissolved in DMSO were added to each well and incubated for 72 h. Doxorubicin was used as a positive control. The negative control received the same amount of DMSO. Four hours before the end of the incubation period, 20 μL of the stock solution (0.312 mg/mL) of alamar blue (resazurin) was added to each well. Absorbances were measured at wavelengths of 570 nm (reduced) and 600 nm (oxidized) using a plate reader.

For the next data set, the system named is HepG2 cells. The data set is described as follows: Cytotoxicity assay, alamar blue test. It is filed as cell-based, human. To be noted: value (95% confidence interval). Here is the method:
as §3, §4
On the technique in general: Alamar Blue is a resazurin reagent that responds to reducing activity.

The test system of another data set is HCT116. The data set is described as follows: Cytotoxicity assay, alamar blue test. It is filed as cell-based, human. To be noted: value (95% confidence interval). As to the method:
as §3, §4

The subject of data set [2] is Candida krusei CBS 573. The data set is described as follows: Minimum fungicide concentration (MFC). It counts as cell-based. The following applies: for MIC/MFC reason C. krusei CBS 573: ≥ 4 fungistatic or <4 fungicide. Here is the method: as §1
(§5) The minimum fungicide concentration (MFC) of the compounds was obtained after the interpretation of the MIC. Three (3) aliquots of 30 μL of supernatant were removed from the wells (where complete inhibition of fungal growth was analyzed) and placed in Petri dishes containing 15 mL of agar Sabouraud dextrose. The plates were incubated at 35 ± 2°C for 24 h for visual counting of colony forming units. To determine whether the compounds had fungistatic (MFC/MIC ≥ 4) or fungicidal (MFC/MIC < 4) activity, the MFC/MIC ratio was calculated.

Data set [3] relates to Candida tropicalis CBS 94. The data set is described as follows: Minimum fungicide concentration (MFC). It counts as cell-based. To be noted: for MIC/MFC reason C. tropicalis CBS 94: ≥ 4 fungistatic or <4 fungicide. As to the method: as §1, §5
Another data set has as its system MRC5. The data set is described as follows: Cytotoxicity assay, alamar blue test (healthy cell line). It is filed as cell-based, human. The following applies: value (95% confidence interval). As to the method:
as §3, §4

A further data set deals with C. albicans. The data set is described as follows: Ergosterol test (plasma membrane mechanism), microdilution. It is filed as cell-based, Candida albicans. The following applies: Candida albicans. As to the method: (2) Ergosterol Test. The test of the compounds was performed using the microdilution technique, as previously described, in the presence of exogenous ergosterol at 400 μg/mL. Nystatin was used as positive control. The plates were incubated at 35 ± 2°C, and readings were taken at 24 and 48 h.

Data set [4] has as its system Candida krusei CBS 573. The data set is described as follows: MIC by broth microdilution. It counts as cell-based. The following applies: Pichia kudriavzevii, CBS573, 24 h, N.A.: no activity, read-out: MIC C. krusei CBS 573. Here is the method: as §1, §2
Background: In broth dilution the organism is exposed to a series of concentrations in liquid medium.

Data set [5] relates to Candida tropicalis CBS 94. The data set is described as follows: MIC by broth microdilution. It is filed as cell-based. The following applies: CBS94, 24 h, N.A.: no activity, read-out: MIC C. tropicalis CBS 94. Here is the method: as §1, §2
In data set [6] the test system is Candida albicans CBS 562. The data set is described as follows: Minimum fungicide concentration (MFC). It counts as cell-based. Here is the method: as §1, §5
In another data set the test system is C. albicans CBS 562. The data set is described as follows: Sorbitol assay (cell wall mechanism), microdilution. It is filed as cell-based, Candida albicans. To be noted: Candida albicans, CBS562, C. albicans CBS 562. Here is the method: (1) Sorbitol Assay. The microdilution technique was performed in the presence of sorbitol (D-sorbitol, anhydrous) (INLAB laboratory), to determine the mode of action of the compounds on the cell wall of C. albicans CBS 562. For this test, the inoculum was prepared with sorbitol to a final concentration of 0.8 M. The plates were incubated at 35 ± 2°C, and readings were taken 24 h and 48 h after incubation. Caspofungin was used as positive control at an initial concentration of 5 mg/mL [68–70].

The subject of data set [7] is Candida strains (Candida albicans, C. tropicalis, and C. krusei). The data set is described as follows: Antifungal evaluation (MIC/MFC), statements for all Candida strains. It counts as cell-based, Candida spp. To be noted: Candida strains; read-out: bioactivity category by MIC. Here is the method:
The antifungal activity (Table 2) of the ten amides was assessed via the minimum inhibitory concentration (MIC) which was determined using the microdilution methods against three species of Candida strains (Candida albicans, C. tropicalis, and C. krusei).
as §1, §2
The minimum fungicide concentration (MFC) of the compounds was obtained after the interpretation of the MIC. Three (3) aliquots of 30 μL of supernatant were removed from the wells (where complete inhibition of fungal growth was analyzed) and placed in Petri dishes containing 15 mL of agar Sabouraud dextrose. The plates were incubated at 35 ± 2°C for 24 h for visual counting of colony forming units.

≈ marks a conversion by molar mass, not a printed value. Where “and” joins values, the source holds several entries; their conditions need not be identical. Identical values can stand only once. Like-named read-outs stand apart in the source and are kept apart here. Bounds are passed on as bounds.

One may read the IC50 as the concentration that gives 50% inhibition. For “(E)-N-(4-chlorobenzyl)-3-(3-hydroxy-4-methoxyphenyl)acrylamide [Compound 9]”, in the data set on Candida albicans CBS 562 [1], the “MIC C. albicans CBS 562” value is “inactivity”. In addition, in the data set on HL-60 (72 h), the “IC50 HL60” value is 15.58 (9.26–26.20) μg/mL and the half-maximal inhibitory concentration (IC50) was 49 µM. For the same compound, in the data set on HepG2 cells (72 h), the half-inhibitory concentration (IC50) is > 78.7 µM and the “IC50 HEPG2” value was >25 µg/mL. In the data set with HCT116 (72 h), the IC50 is > 78.7 µM and the “IC50 HCT116” value is >25 µg/mL. In addition, in the data set on Candida krusei CBS 573 [2], the “MIC/MFC reason C. krusei CBS 573” value came out at 1. The “MIC/MFC reason C. tropicalis CBS 94” value in [3] amounted to 1. In addition, in the data set with MRC5 (72 h), the IC50 was > 78.7 µM and the “IC50 MRC5” value was >25 µg/mL.
Consider “(E)-3-(3-hydroxy-4-methoxyphenyl)-N-(4-methylbenzyl)acrylamide [Compound 7]”, for which, in the data set on Candida albicans CBS 562 [1], the “MIC C. albicans CBS 562” value is “inactive”. The IC50 with HL-60 (72 h) is 53.1 µM; in the data set on HepG2 cells (72 h), > 84.1 µM; with HCT116 (72 h) it was > 84.1 µM; with MRC5 (72 h) it was > 84.1 µM. The “IC50 HEPG2” value in the data set on HepG2 cells (72 h) was >25 µg/mL. Moreover, the “IC50 HCT116” value with HCT116 (72 h) is >25 µg/mL. In the data set on Candida krusei CBS 573 [2], the “MIC/MFC reason C. krusei CBS 573” value was 1. For the same compound, the “MIC/MFC reason C. tropicalis CBS 94” value in data set [3] is recorded as 1. Besides, the “IC50 MRC5” value in the data set with MRC5 (72 h) was >25 µg/mL.
The MIC is the lowest concentration that inhibits growth of the organism. Usually melting point stands for the temperature of the solid-liquid transition. A word on the MFC: it is the lowest tested concentration that kills the fungus rather than only halting it. `COc1cc(C=CC(=O)NCc2ccc3c(c2)OCO3)ccc1O` [Compound 11] displayed a melting point of 172 to 175 °C. In addition, the MIC with C. albicans (absence of ergosterol, read-out: MIC Without ergosterol) came to 62.2 µg/mL (≈ 190 µM). Further, the minimum inhibitory concentration (MIC) with C. albicans (exogenous ergosterol at 400 μg/mL, read-out: MIC With ergosterol) worked out at 62.2 µg/mL (≈ 190 µM). The minimal inhibitory concentration (MIC) in the data set on Candida krusei CBS 573 [4] turned out to be 62.5 µg/mL (≈ 191 µM). Besides, the MIC in the data set on Candida albicans CBS 562 [1] (Candida albicans, CBS562, 24 h, read-out: MIC C. albicans CBS 562) was 62.5 µg/mL and 190 µM. Further, the minimal inhibitory concentration (MIC) in data set [5] turned out to be 500 µg/mL (≈ 1530 µM). In addition, the concentration for half-maximal inhibition (IC50) in the data set with HL-60 (Homo sapiens, HL-60, 72 h) was 18.8 µg/mL and 57.4 µM. The IC50 in the data set on HepG2 cells (Homo sapiens, HepG2, 72 h) was > 25 µg/mL and > 76.4 µM. In addition, the half-inhibitory concentration (IC50) with HCT116 (Homo sapiens, HCT-116, 72 h) was > 25 µg/mL and > 76.4 µM. Moreover, the MFC with Candida krusei CBS 573 [2] (Pichia kudriavzevii, CBS573, N.A.: no activity, read-out: MFC C. krusei CBS 573) is 62.5 µg/mL and 190 µM. In the data set with Candida krusei CBS 573 [2], the “MIC/MFC reason C. krusei CBS 573” value was 1. In addition, the minimum fungicidal concentration (MFC) with Candida albicans CBS 562 [6] (Candida albicans, CBS562, N.A.: no activity, read-out: MFC C. albicans CBS 562) is 125 µg/mL and 380 µM. Further, the “MIC/MFC reason C. albicans CBS 562” value against Candida albicans CBS 562 [6] (≥ 4 fungistatic or <4 fungicide) came to 2. For the same compound, the MFC in [3] (Candida tropicalis, CBS94, N.A.: no activity, read-out: MFC C. tropicalis CBS 94) was 500 µg/mL and 1520 µM. For the same compound, in [3], the “MIC/MFC reason C. tropicalis CBS 94” value is recorded as 1. For the same compound, the IC50 with MRC5 (Homo sapiens, MRC5, 72 h) was > 25 µg/mL and > 76.4 µM. The minimum inhibitory concentration (MIC) in the data set with C. albicans CBS 562 (absence of sorbitol, read-out: MIC Without sorbitol) amounted to 15.6 µg/mL (≈ 47.7 µM). Moreover, the MIC in the data set on C. albicans CBS 562 (sorbitol 0.8 M, read-out: MIC With sorbitol) is > 1000 µg/mL. Further, in data set [7], the minimal inhibitory concentration (MIC) was 26 to 125 µg/mL (≈ 79.4 to 382 µM).
